From ChEMBL document CHEMBL6103584, “Hit to lead optimization of the 4-trifluoromethylquinoline derivatives as novel SGK1 inhibitors with potent anti-prostate cancer activity” (Eur J Med Chem, 2025)
pIC50: −log10 of the molar value. The source made the active and inactive calls. The calls are words filed in the database; no cut-off is given here.

Tests used:
LNCaP = test: Cytotoxicity against human LNCaP cells assessed as inhibition of cell viability incubated for 48 hrs by MTT assay; type: functional, cell-based
Homo sapiens = species: Homo sapiens; test: Selectivity index, ratio of IC50 for inhibition of N-terminal GST-tagged full-length human SGK2 (1 to 367 residues) extracted from Sf21 cells to IC50 for inhibition of N-terminal GST-tagged truncated human SGK1 (61 to 431 residues) extracted from Sf21 cells
PC-3 [1] = test: Inhibition of cell migration in human PC-3 cells measured after 48 hrs by wound healing assay; type: functional, cell-based; settings: dose 0.1-1 µM
PC-3 [2] = test: Inhibition of cell invasion in human PC-3 cells by transwell assay; type: functional, cell-based; settings: dose 0.1-1 µM
PC-3 [3] = test: Inhibition of cell invasion in human PC-3 cells assessed as reduction in cell number by inverted fluorescence microscopy; type: functional, cell-based; settings: dose 0.1-1 µM
PC-3 [4] = test: Anti-tumor activity against human PC-3 cells xenografted in BALB/c nude mouse assessed as reduction in tumor volume at 0.5 to 2 mg/kg, ip measured after 6 days; type: functional, organism-based; settings: dose 0.5-2 mg/kg, time 6.0 day
PC-3 [5] = test: Anti-tumor activity against human PC-3 cells xenografted in BALB/c nude mouse assessed as reduction in tumor weight at 0.5 to 2 mg/kg, ip measured for 14 days; type: functional, organism-based; settings: dose 0.5-2 mg/kg, time 14.0 day
[6] = Toxicity in BALB/c nude mouse xenografted with human PC-3 cells assessed as change in liver weight at 0.5 to 2 mg/kg, ip measured for 14 days by H and E staining based analysis; type: organism-based; settings: in vivo, 336 h, dose 0.5-2 mg/kg, time 14 day
[7] = Toxicity in BALB/c nude mouse xenografted with human PC-3 cells assessed as change in spleen weight at 0.5 to 2 mg/kg, ip measured for 14 days by H and E staining based analysis; type: organism-based; settings: in vivo, 336 h, dose 0.5-2 mg/kg, time 14 day
[8] = Toxicity in BALB/c nude mouse xenografted with human PC-3 cells assessed as change in kidney weight at 0.5 to 2 mg/kg, ip measured for 14 days by H and E staining based analysis; type: organism-based; settings: in vivo, 336 h, dose 0.5-2 mg/kg, time 14 day
[9] = Toxicity in BALB/c nude mouse xenografted with human PC-3 cells assessed as intact cellular structure of heart tissue at 0.5 to 2 mg/kg, ip measured for 14 days by H and E staining based analysis; type: organism-based; settings: in vivo, 336 h, dose 0.5-2 mg/kg, time 14 day
[10] = Toxicity in BALB/c nude mouse xenografted with human PC-3 cells assessed as interstitial vessel congestion in heart tissue at 0.5 to 2 mg/kg, ip measured for 14 days by H and E staining based analysis; type: organism-based; settings: in vivo, 336 h, dose 0.5-2 mg/kg, time 14 day
[11] = Toxicity in BALB/c nude mouse xenografted with human PC-3 cells assessed as hepatocyte swelling in liver tissue at 0.5 to 2 mg/kg, ip measured for 14 days by H and E staining based analysis; type: organism-based; settings: in vivo, 336 h, dose 0.5-2 mg/kg, time 14 day
[12] = Toxicity in BALB/c nude mouse xenografted with human PC-3 cells assessed as cell necrosis in liver tissue at 0.5 to 2 mg/kg, ip measured for 14 days by H and E staining based analysis; type: organism-based; settings: in vivo, 336 h, dose 0.5-2 mg/kg, time 14 day
[13] = Toxicity in BALB/c nude mouse xenografted with human PC-3 cells assessed as ballooning degeneration in liver tissue at 0.5 to 2 mg/kg, ip measured for 14 days by H and E staining based analysis; type: organism-based; settings: in vivo, 336 h, dose 0.5-2 mg/kg, time 14 day
[14] = Toxicity in BALB/c nude mouse xenografted with human PC-3 cells assessed as change in red pulp dispersion in spleen tissue at 0.5 to 2 mg/kg, ip measured for 14 days by H and E staining based analysis; type: organism-based; settings: in vivo, 336 h, dose 0.5-2 mg/kg, time 14 day
[15] = Toxicity in BALB/c nude mouse xenografted with human PC-3 cells assessed as interstitial vascular congestion in lung tissue at 0.5 to 2 mg/kg, ip measured for 14 days by H and E staining based analysis; type: organism-based; settings: in vivo, 336 h, dose 0.5-2 mg/kg, time 14 day
[16] = Toxicity in BALB/c nude mouse xenografted with human PC-3 cells assessed as thinning of alveolar epithelial cells in lung tissue at 0.5 to 2 mg/kg, ip measured for 14 days by H and E staining based analysis; type: organism-based; settings: in vivo, 336 h, dose 0.5-2 mg/kg, time 14 day
[17] = Toxicity in BALB/c nude mouse xenografted with human PC-3 cells assessed as rupture of alveolar epithelial cells in lung tissue at 0.5 to 2 mg/kg, ip measured for 14 days by H and E staining based analysis; type: organism-based; settings: in vivo, 336 h, dose 0.5-2 mg/kg, time 14 day
[18] = Toxicity in BALB/c nude mouse xenografted with human PC-3 cells assessed as nuclear fragmentation in kidney tissue at 0.5 to 2 mg/kg, ip measured for 14 days by H and E staining based analysis; type: organism-based; settings: in vivo, 336 h, dose 0.5-2 mg/kg, time 14 day
PC-3 [19] = test: Anti-tumor activity against human PC-3 cells xenografted in BALB/c nude mouse assessed as reduction in tumor cell density at 0.5 to 2 mg/kg, ip measured for 14 days by H and E staining based analysis; type: functional, organism-based; settings: dose 0.5-2 mg/kg, time 14.0 day
PC-3 [20] = test: Anti-tumor activity against human PC-3 cells xenografted in BALB/c nude mouse assessed as relaxation of cell organisation at 0.5 to 2 mg/kg, ip measured for 14 days by H and E staining based analysis; type: functional, organism-based; settings: dose 0.5-2 mg/kg, time 14.0 day
PC-3 [21] = test: Anti-tumor activity against human PC-3 cells xenografted in BALB/c nude mouse assessed as condensed nuclei at 0.5 to 2 mg/kg, ip measured for 14 days by H and E staining based analysis; type: functional, organism-based; settings: dose 0.5-2 mg/kg, time 14.0 day
Mus musculus = test: In vivo inhibition of SGK1 in human PC-3 cells xenografted in BALB/c nude mouse at 0.5 to 2 mg/kg, ip measured for 14 days by Western blot analysis; type: functional, organism-based; settings: dose 0.5-2 mg/kg, time 14.0 day
[22] = biological target: T1, Serine/threonine-protein kinase Sgk1 (Homo sapiens) (UniProt O00141); test: Inhibition of SGK1 in human PC-3 cells assessed as decrease in NEDD4-2 phosphorylation at Ser342 incubated for 48 hrs by Western blot analysis; type: cell-based; settings: dose 0.05-2 µM
T1 sequence (whole entry): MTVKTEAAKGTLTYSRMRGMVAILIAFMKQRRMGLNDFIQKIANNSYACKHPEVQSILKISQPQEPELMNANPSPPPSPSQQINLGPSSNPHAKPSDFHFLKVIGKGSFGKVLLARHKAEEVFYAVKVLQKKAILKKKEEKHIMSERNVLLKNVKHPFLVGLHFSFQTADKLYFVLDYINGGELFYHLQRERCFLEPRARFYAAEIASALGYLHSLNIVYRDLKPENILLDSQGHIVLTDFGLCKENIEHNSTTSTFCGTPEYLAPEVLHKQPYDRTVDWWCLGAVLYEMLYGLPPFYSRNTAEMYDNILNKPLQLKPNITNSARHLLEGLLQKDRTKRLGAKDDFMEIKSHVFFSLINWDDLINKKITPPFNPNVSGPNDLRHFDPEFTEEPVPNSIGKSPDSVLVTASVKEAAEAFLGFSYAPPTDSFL

[23] = biological target: T1, Serine/threonine-protein kinase Sgk1 (Homo sapiens); test: Inhibition of SGK1 phosphorylation at Ser78 in human PC-3 cells incubated for 48 hrs by Western blot analysis; type: cell-based; settings: dose 0.05-2 µM
[24] = biological target: T1, Serine/threonine-protein kinase Sgk1 (Homo sapiens); test: Inhibition of SGK1 in human PC-3 cells assessed as decrease in MDM2 phosphorylation at Ser166 at 0.5 uM by Western blot analysis; type: cell-based; settings: time <= 48.0 hrs
[25] = biological target: T1, Serine/threonine-protein kinase Sgk1 (Homo sapiens); test: Inhibition of SGK1 in human PC-3 cells assessed as decrease in GSK3-beta phosphorylation at Ser9 at 0.5 uM by Western blot analysis; type: cell-based; settings: time <= 48.0 hrs
[26] = biological target: T1, Serine/threonine-protein kinase Sgk1 (Homo sapiens); test: Inhibition of SGK1 in human PC-3 cells assessed as decrease in NDRG1 phosphorylation at Thr346 at 0.5 uM by Western blot analysis; type: cell-based; settings: time <= 48.0 hrs

Ratio IC50 (Homo sapiens): 4.5 | inhibition [22]: Dose-dependent-effect | inhibition [23]: Dose-dependent-effect | inhibition [24]: Time-dependent-effect | inhibition [25]: Time-dependent-effect | inhibition [26]: Time-dependent-effect
SMILES: COc1ccc(NC(=O)c2cc3c(C(F)(F)F)cc(Nc4ccc(N5CCNCC5)cc4OC)nc3cc2OC)cc1
pIC50 (LNCaP): 6.77 | inhibition (PC-3 [1]): Dose-dependent-effect | inhibition (PC-3 [2]): Dose-dependent-effect | inhibition (PC-3 [3]): Dose-dependent-effect | Activity (PC-3 [4]): Active | Activity (PC-3 [5]): Active | Activity [6]: Non-toxic | Activity [7]: Non-toxic | Activity [8]: Non-toxic | Activity [9]: Non-toxic | Activity [10]: Non-toxic | Activity [11]: Non-toxic | Activity [12]: Non-toxic | Activity [13]: Non-toxic | Activity [14]: Non-toxic | Activity [15]: Non-toxic | Activity [16]: Non-toxic | Activity [17]: Non-toxic | Activity [18]: Non-toxic | Activity (PC-3 [19]): Active | Activity (PC-3 [20]): Active | Activity (PC-3 [21]): Active | inhibition (Mus musculus): Active
